This is an account of results in patent publication US11311513B2, “Methods, agents, and compositions for the treatment of acute myeloid leukemia” (UNIVERSITY OF CINCINNATI, priority 2017, dated 2022).

The subject of series [1] is BM cells of leukemic mice with MLL-AF9 fusion (MA9-AML) or FLT3-ITD/NPM1^mut. Nature of the series: MTS and apoptosis assays in BM cells of leukemic mice. The format is cell-based. The note with it: 50 nM; 3 days. The procedure:
FIG. 14. […] BM cells of leukemic mice with MLL-AF9 fusion (MA9-AML) or FLT3-ITD/NPM1^mut, and c-Kit^+ HSPCs from a pool of 6 healthy donor mice were cultured in liquid medium. […] MTS (a), apoptosis assays (b) and qPCR (c) were conducted 3 days after cell seeding or drug treatments. Error bar indicates SD of triplicate experiments.
These experiments were conducted as described previously (Jiang, X., et al., Blockade of miR-150 Maturation by MLL-Fusion/MYC/LIN-28 Is Required for MLL-Associated Leukemia, Cancer Cell 22:524-35 (2012); Li, Z., et al., miR-196b directly targets both HOXA9/MEIS1 oncogenes and FAS tumour suppressor in MLL-rearranged leukaemia, Nat Commun 2:688 (2012)) with ApoLive-Glo Multiplex Assay Kit, or CellTiter 96 AQueous Non-Radioactive Cell Proliferation Assay Kit (Promega, Madison, Wis.).
(In general: Tetrazolium assays rely on reduction of a dye to a coloured formazan, in cell work by metabolically active cells.)

The test system of the next series is TET1. Nature of the series: TET1 expression by qPCR in AML cell lines. Type of series: cell-based. The procedure:
FIG. 1. […] Cell viability was analyzed by MTS 48 hours post-treatment. […] TET1 expression levels were detected by qPCR 48 hrs post-treatment. […] TET1 expression levels (e) and cell viability (f) were detected 24 hrs post-treatment. *, P<0.05, two-tailed t-test. MM6, MONOMAC-6. Error bar indicates SD of triplicate experiments.
Total RNA was extracted with the miRNeasy extraction kit (Qiagen) and was used as template for quantitative RT-PCR (qPCR) analysis.
In general terms: Quantitative PCR measures a nucleic acid by following its amplification.

Series [2] can be described thus: Acute and long-term toxicity profiling in healthy mice. The format is in vivo, C57BL/6 mice. The note with it: for acute (24 hrs) or long-term (200 days) toxicity: 2.5 mg/kg i.p. once per day 10 days, body, spleen, liver weights, WBC, PB and BM lineages; for WBC: 2.5 mg/kg i.p. 10 days, normal range 1.8-10.7; for BA / EO: normal range 0.0-0.2; for MO: normal range 0.0-0.4; for NE: normal range 0.1-2.4; for LY: normal range 0.9-9.3; for RBC: normal range 6.36-9.42; for PLT: normal range 592-2972. The procedure:
FIG. 15. […] 24 hrs after the last administration, body weights (a), weights of spleens (b), livers (c), total PB WBC counts (d), BM Mac1^+Gr1^+ (e), Mac1^+Gr1^− (f), Mac1^−Gr1^+ (g), and c-Kit^+ (h) populations were analyzed.
FIG. 16. […] 200 days after the last administration, body weights (a), weights of spleens (b), livers (c), total PB WBC counts (d), BM Mac1^+Gr1^+ (e), Mac1^+Gr1^− (f), Mac1^−Gr1^+ (g), and c-Kit^+ (h) populations were analyzed.

A further series has as its system AE9a-AML. Nature of the series: AML-ETO9a (AE9a) AML secondary BMT mouse model. Type of series: in vivo, mice. The conditions noted are these: for median survival: 2.5 mg/kg i.p. once per day for 10 days, control 46 days. As to the method:
(§1) FIG. 2. […] The secondary BMT recipient mice were transplanted with leukemic BM blast cells collected from primary MLL-AF9 AML mice. […] Kaplan-Meier curves are shown. The P values were determined by log-rank test. (b) Wright-Giemsa staining of mouse peripheral blood (PB) and BM, or hematoxylin and eosin (H&E) staining of mouse spleen and liver of the treated or control leukemic mice. (c,d) Tet1/2/3 gene expression levels (c) or Tet1 protein level (d) in BM blast cells of the treated or control leukemic mice. *, P<0.05, two-tailed t-test. Error bar indicates SD of triplicate experiments. […] The secondary BMT recipient mice were transplanted with leukemic BM blast cells collected from the primary AE9a-AML mice. […] Kaplan-Meier curves are shown. The P values were determined by log-rank test.
(§2) Secondary mouse BMT was carried out as described previously. […] For the “5+3” treatment, AraC (Cytarabine, Bedford Laboratories) and DNR (Daunorubicin, Sigma-Aldrich) were reconstituted with PBS, filtered, and stored in aliquots at −20° C. The “5+3” therapy regimen consists of five consecutive daily doses of 50 mg/kg AraC along with 3 mg/kg DNR daily during the first three days of treatment. Drugs were delivered by tail vein and intraperitoneal injection. Weights were taken daily during treatment and doses were recalculated to ensure the mice received a consistent dose of 50 mg/kg AraC and 3 mg/kg DNR every treatment.

A further series relates to MLL-AF9-induced AML. The series can be described thus: MLL-AF9 AML secondary BMT mouse model. Type of series: in vivo, mice. The note with it: for mice cured / median survival: 2.5 mg/kg i.p. once per day for 10 days; for median survival: control 49 days. The procedure:
as §1, §2

[3] abbreviates: acute, 24 hrs post last administration.
Where [4] appears, read: long-term, 200 days post last administration.
Setting [5] is: versus control, 2.5 mg/kg i.p. 10 days.

Values joined by “and” are separate entries in the source; they are usually repeats but may differ in a detail not shown here. Equal values may be shown once.

For `COc1cc(C(c2cc3c(cc2O)OCO3)N2CCCC2)cc(OC)c1OC` (stereo not shown) [NSC-370284, 6-(1-Pyrrolidinyl(3,4,5-trimethoxyphenyl)methyl)-1,3-benzodioxol-5-ol], the “viability of AML cells” value in series [1] was “dramatically suppressed”. Also, the TET1 transcription entry with TET1 (25 nM, 24 hours, MONOMAC-6, THP-1 and KOCL-48 cells) is recorded as “significant down-regulation”. Also, the “level of TET1 expression” value in the series with TET1 (TET1-high AML cells, 300 nM, qPCR 48 hrs) is reported as “significantly repressed”. Moreover, the “acute (24 hrs) or long-term (200 days) toxicity” value in series [2] was “no evidence of either acute or long-term toxicity”. In series [2] (setting [3]), the WBC was 8.35 ± 2.34 K/μl, the BA is reported as 0.05 ± 0.05 K/μl, the MO came to 0.22 ± 0.14 K/μl and the NE came out at 1.67 ± 0.21 K/μl. In series [2] (setting [3]), the LY stood at 6.74 ± 2.55 K/μl, the RBC turned out to be 8.55 ± 3.34 M/μl and the PLT is 460.21 ± 42.42 K/μl. In series [2] (setting [4]), the WBC was found to be 10.34 ± 2.19 K/μl, the BA was found to be 0.03 ± 0.02 K/μl, the EO is 0.11 ± 0.01 K/μl and the MO was 0.31 ± 0.03 K/μl. For the same molecule, in series [2] (setting [4]), the NE is given as 2.26 ± 0.54 K/μl, the LY came to 7.68 ± 1.55 K/μl, the RBC came out at 7.38 ± 1.7 M/μl and the PLT was determined as 929.62 ± 154.61 K/μl. For the same molecule, in the series on AE9a-AML, the median survival was 122 days and 114 days. In the series with MLL-AF9-induced AML, this molecule came in with a mice cured of 57% and a median survival of over 200 days.
As to `CC(C)(C)c1cc(C(c2cc3c(cc2O)OCO3)N2CCOCC2)cc(C(C)(C)C)c1O` (stereo not shown) [UC-514321, 6-{[4-Hydroxy-3,5-bis(2-methyl-2-propanyl)phenyl](4-morpholinyl)methyl}-1,3-benzodioxol-5-ol], in series [1], the “viability of AML cells” value is listed as “dramatically suppressed”. Also, the “expression of TET1, TET2, TET3” value with TET1 (MONOMAC-6 cells, 500 nM, 48 hrs) was “significantly repressed expression of TET1, but not TET2 or TET3”. In series [2], the “acute (24 hrs) or long-term (200 days) toxicity” value is “no evidence of either acute or long-term toxicity”. In series [2] (setting [3]), this molecule came in with a WBC of 8.64 ± 3.68 K/μl, a BA of 0.07 ± 0.05 K/μl, an EO of 0.14 ± 0.12 K/μl and an MO of 0.27 ± 0.1 K/μl. Further, in series [2] (setting [3]), the NE worked out at 1.94 ± 0.56 K/μl, the LY is recorded as 6.54 ± 2.7 K/μl, the RBC came to 9.54 ± 0.74 M/μl and the PLT was 559.43 ± 116.9 K/μl. In series [2] (setting [4]), this molecule displayed a WBC of 11.89 ± 1.64 K/μl, a BA of 0.07 ± 0.04 K/μl, an EO of 0.1 ± 0.01 K/μl and an MO of 0.25 ± 0.05 K/μl. In series [2] (setting [4]), this molecule returned an NE of 2.11 ± 0.44 K/μl, an LY of 8.55 ± 1.18 K/μl, an RBC of 7.07 ± 0.42 M/μl and a PLT of 681.56 ± 402.64 K/μl. Also, the median survival with AE9a-AML is 160 days. Besides, the “prolongation of median survival” value in the series with AE9a-AML (setting [5]) is “over 3 folds”. In the series on MLL-AF9-induced AML, the mice cured was found to be 66.7% and the median survival is given as over 200 days. In addition, the “prolongation of median survival” value in the series with MLL-AF9-induced AML (setting [5]) is on record as “over 3 folds”.
